Data taken from the supplement of paper PMC13380429.

Key:
HepG2 [1] = test: cell viability relative to DMSO; higher = less toxic; conditions: 72 h
Calu-3 [2] = test: as above; conditions: 72 h
U2OS [3] = test: as above; conditions: 72 h
Caco-2 [4] = test: as above; conditions: 72 h
Vero E6 [5] = test: as above; conditions: 72 h
A549-ACE2 [6] = test: drug-induced phospholipidosis relative to tamoxifen; higher = more phospholipidosis
[7] = tested on: A549-ACE2 infected with SARS-CoV-2; test: SARS-CoV-2 infection rate relative to DMSO; higher = more infection; conditions: 24 h
A549-ACE2 [8] = test: phospholipidosis EC50; higher = less potent phospholipidosis inducer
[9] = tested on: A549-ACE2 infected with SARS-CoV-2; test: morphology score (similarity to uninfected cells); higher = more like uninfected cells; conditions: 24 h
[10] = tested on: A549-ACE2 infected with SARS-CoV-2; test: cell count relative to DMSO; higher = less toxic; conditions: 24 h
HepG2 [11] = test: relative viability EC50 (midpoint between 100% and the lowest measured viability); higher = less toxic; conditions: 72 h
Calu-3 [12] = test: as above; conditions: 72 h
U2OS [13] = test: as above; conditions: 72 h
Caco-2 [14] = test: as above; conditions: 72 h
Vero E6 [15] = test: as above; conditions: 72 h
HepG2 [16] = test: drug sensitivity score (DSS) for viability; higher = more toxic; extreme values may be limits of the assay; conditions: 72 h
Calu-3 [17] = test: as above; conditions: 72 h
U2OS [18] = test: as above; conditions: 72 h
Caco-2 [19] = test: as above; conditions: 72 h
Vero E6 [20] = test: as above; conditions: 72 h

Cc1ccccc1-n1c(Cn2ncc3c(N)ncnc32)nc2cccc(C)c2c1=O [PIK-293]
Conditions	SARS-CoV-2 infection rate [%]	cell count [%]	cell viability [%]	morphology score	phospholipidosis EC50 [µM]
A549-ACE2 [8], 24 h	–	–	–	–	2.86
A549-ACE2 [8], 48 h	–	–	–	–	3.88
Caco-2 [4], 1 nM	–	–	101	–	–
Caco-2 [4], 10 nM	–	–	94.2	–	–
Caco-2 [4], 100 nM	–	–	91.1	–	–
Caco-2 [4], 1000 nM	–	–	95.8	–	–
Caco-2 [4], 10000 nM	–	–	89.9	–	–
Calu-3 [2], 1 nM	–	–	96.8	–	–
Calu-3 [2], 10 nM	–	–	90.5	–	–
Calu-3 [2], 100 nM	–	–	93	–	–
Calu-3 [2], 1000 nM	–	–	111	–	–
Calu-3 [2], 10000 nM	–	–	102	–	–
HepG2 [1], 1 nM	–	–	95.5	–	–
HepG2 [1], 10 nM	–	–	90	–	–
HepG2 [1], 100 nM	–	–	104	–	–
HepG2 [1], 1000 nM	–	–	95	–	–
HepG2 [1], 10000 nM	–	–	99.4	–	–
U2OS [3], 1 nM	–	–	91.4	–	–
U2OS [3], 10 nM	–	–	100	–	–
U2OS [3], 100 nM	–	–	93.6	–	–
U2OS [3], 1000 nM	–	–	100	–	–
U2OS [3], 10000 nM	–	–	95.5	–	–
Vero E6 [5], 1 nM	–	–	102	–	–
Vero E6 [5], 10 nM	–	–	99	–	–
Vero E6 [5], 100 nM	–	–	105	–	–
Vero E6 [5], 1000 nM	–	–	101	–	–
Vero E6 [5], 10000 nM	–	–	104	–	–
[7], 0.3 µM	89	–	–	–	–
[7], 3 µM	27	–	–	–	–
[7], 10 µM	70	–	–	–	–
[9], 0.3 µM	–	–	–	0.21	–
[9], 3 µM	–	–	–	0.76	–
[9], 10 µM	–	–	–	0.02	–
[10], 0.3 µM	–	84	–	–	–
[10], 3 µM	–	98	–	–	–
[10], 10 µM	–	65	–	–	–

drug-induced phospholipidosis [%], A549-ACE2 [6]
Conditions	0.3 µM	0.833333 µM	3.33333 µM	6.66667 µM	10 µM
24 h	2.65	16.4	52.5	87.2	81
48 h	5.81	14	48.3	99.5	–
72 h	3.73	6.21	–	–	–

Conditions	drug sensitivity score	relative viability EC50 [µM]
Caco-2 [14]	–	> 10
Caco-2 [19]	0	–
Calu-3 [12]	–	> 10
Calu-3 [17]	0	–
HepG2 [11]	–	> 10
HepG2 [16]	0	–
U2OS [13]	–	> 10
U2OS [18]	0	–
Vero E6 [15]	–	> 10
Vero E6 [20]	0	–

CN(C)C[C@H](O)Cn1c2ccc(Br)cc2c2cc(Br)ccc21 (racemic) [wiskostatin]
Conditions	SARS-CoV-2 infection rate [%]	cell count [%]	cell viability [%]	morphology score	phospholipidosis EC50 [µM]
A549-ACE2 [8], 24 h	–	–	–	–	2.73
A549-ACE2 [8], 48 h	–	–	–	–	3.44
A549-ACE2 [8], 72 h	–	–	–	–	4.3
Caco-2 [4], 1 nM	–	–	103	–	–
Caco-2 [4], 10 nM	–	–	105	–	–
Caco-2 [4], 100 nM	–	–	100	–	–
Caco-2 [4], 1000 nM	–	–	97.2	–	–
Caco-2 [4], 10000 nM	–	–	35	–	–
Calu-3 [2], 1 nM	–	–	110	–	–
Calu-3 [2], 10 nM	–	–	95.4	–	–
Calu-3 [2], 100 nM	–	–	123	–	–
Calu-3 [2], 1000 nM	–	–	104	–	–
Calu-3 [2], 10000 nM	–	–	20.7	–	–
HepG2 [1], 1 nM	–	–	108	–	–
HepG2 [1], 10 nM	–	–	105	–	–
HepG2 [1], 100 nM	–	–	107	–	–
HepG2 [1], 1000 nM	–	–	107	–	–
HepG2 [1], 10000 nM	–	–	27.2	–	–
U2OS [3], 1 nM	–	–	103	–	–
U2OS [3], 10 nM	–	–	98.8	–	–
U2OS [3], 100 nM	–	–	104	–	–
U2OS [3], 1000 nM	–	–	99.4	–	–
U2OS [3], 10000 nM	–	–	70.1	–	–
Vero E6 [5], 1 nM	–	–	110	–	–
Vero E6 [5], 10 nM	–	–	110	–	–
Vero E6 [5], 100 nM	–	–	106	–	–
Vero E6 [5], 1000 nM	–	–	100	–	–
Vero E6 [5], 10000 nM	–	–	48.2	–	–
[7], 0.1 µM	107	–	–	–	–
[7], 0.3 µM	98	–	–	–	–
[7], 1 µM	87	–	–	–	–
[7], 3 µM	46	–	–	–	–
[9], 0.1 µM	–	–	–	0.02	–
[9], 0.3 µM	–	–	–	0.05	–
[9], 1 µM	–	–	–	0.24	–
[9], 3 µM	–	–	–	0.74	–
[10], 0.1 µM	–	102	–	–	–
[10], 0.3 µM	–	100	–	–	–
[10], 1 µM	–	104	–	–	–
[10], 3 µM	–	119	–	–	–

drug-induced phospholipidosis [%], A549-ACE2 [6]
Conditions	0.3 µM	0.833333 µM	3.33333 µM	6.66667 µM	10 µM
24 h	5.24	11.9	79.4	108	120
48 h	4.43	7.26	89.6	176	184
72 h	2.67	8.55	92.3	196	231

Conditions	drug sensitivity score	relative viability EC50 [µM]
Caco-2 [14]	–	2.85
Caco-2 [19]	3.9	–
Calu-3 [12]	–	3.47
Calu-3 [17]	4	–
HepG2 [11]	–	3.62
HepG2 [16]	3.5	–
U2OS [18]	1.4	–
Vero E6 [15]	–	3.2
Vero E6 [20]	2.7	–

COc1cc(C[C@H]2c3cc(OC)c(OC)cc3CCN2C)c(Oc2cc3c(cc2OC)-c2c(OC)c(OC)cc4c2[C@H](C3)N(C)CC4)cc1OC [thaliblastine]
Conditions	SARS-CoV-2 infection rate [%]	cell count [%]	cell viability [%]	morphology score	phospholipidosis EC50 [µM]
A549-ACE2 [8], 24 h	–	–	–	–	1.3
A549-ACE2 [8], 48 h	–	–	–	–	2.7
A549-ACE2 [8], 72 h	–	–	–	–	6.76
Caco-2 [4], 1 nM	–	–	88.3	–	–
Caco-2 [4], 10 nM	–	–	93.6	–	–
Caco-2 [4], 100 nM	–	–	104	–	–
Caco-2 [4], 1000 nM	–	–	102	–	–
Caco-2 [4], 10000 nM	–	–	86	–	–
Calu-3 [2], 1 nM	–	–	102	–	–
Calu-3 [2], 10 nM	–	–	109	–	–
Calu-3 [2], 100 nM	–	–	97.1	–	–
Calu-3 [2], 1000 nM	–	–	90.2	–	–
Calu-3 [2], 10000 nM	–	–	18.2	–	–
HepG2 [1], 1 nM	–	–	92.4	–	–
HepG2 [1], 10 nM	–	–	111	–	–
HepG2 [1], 100 nM	–	–	96.3	–	–
HepG2 [1], 1000 nM	–	–	105	–	–
HepG2 [1], 10000 nM	–	–	62	–	–
U2OS [3], 1 nM	–	–	94.4	–	–
U2OS [3], 10 nM	–	–	93.9	–	–
U2OS [3], 100 nM	–	–	100	–	–
U2OS [3], 1000 nM	–	–	96.6	–	–
U2OS [3], 10000 nM	–	–	83	–	–
Vero E6 [5], 1 nM	–	–	90.6	–	–
Vero E6 [5], 10 nM	–	–	100	–	–
Vero E6 [5], 100 nM	–	–	89.8	–	–
Vero E6 [5], 1000 nM	–	–	102	–	–
Vero E6 [5], 10000 nM	–	–	96.6	–	–
[7], 0.3 µM	95	–	–	–	–
[7], 3 µM	28	–	–	–	–
[7], 10 µM	21	–	–	–	–
[7], 30 µM	34	–	–	–	–
[9], 0.3 µM	–	–	–	0.32	–
[9], 3 µM	–	–	–	0.61	–
[9], 10 µM	–	–	–	0.29	–
[9], 30 µM	–	–	–	-0.02	–
[10], 0.3 µM	–	109	–	–	–
[10], 3 µM	–	120	–	–	–
[10], 10 µM	–	122	–	–	–
[10], 30 µM	–	115	–	–	–

drug-induced phospholipidosis [%], A549-ACE2 [6]
Conditions	0.3 µM	0.833333 µM	3.33333 µM	6.66667 µM	10 µM	30 µM
24 h	9.75	20.6	72.4	86.2	80.5	65.6
48 h	11.1	12.9	77.4	95.4	104	120
72 h	10.4	12.7	67.9	103	105	154

Conditions	drug sensitivity score	relative viability EC50 [µM]
Caco-2 [14]	–	> 10
Caco-2 [19]	0.1	–
Calu-3 [12]	–	2.18
Calu-3 [17]	6.2	–
HepG2 [16]	1.5	–
U2OS [13]	–	> 10
U2OS [18]	0.8	–
Vero E6 [15]	–	> 10
Vero E6 [20]	0	–
